Reference: PubChem BioAssay (NCI)
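96-well plates; 48 h exposure; 5 concentrations. Endpoints by linear interpolation between flanking doses. Not reached: highest tested concentration assigned. Definition used: TGI = concentration required for complete inhibition of growth.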

What was measured:
Assay in all cases: NCI anticancer screen, dose series, 48 h
[1] = tested on: CCRF-CEM leukemia
[2] = tested on: DU-145 prostate
[3] = tested on: NCI-H460 lung
[4] = tested on: DLD-1 colon
[5] = tested on: DMS 114 small cell lung
[6] = tested on: DMS 273 small cell lung
[7] = tested on: HOP-18 NSCLC
[8] = tested on: KM20L2 colon
[9] = tested on: LXFL 529 NSCLC
[10] = tested on: M19-MEL melanoma
[11] = tested on: SNB-78 CNS
[12] = tested on: XF 498 CNS

SMILES	TGI [1] [µM]	TGI [2] [µM]	TGI [3] [µM]	further results
CC(C)(C)c1cc(C2COC(=O)COCCOCC(=O)OCCOCCO2)cc(C(C)(C)C)c1O (centres undefined)	> 100	37.1	> 100	–
COC(=O)CSc1[nH]c2nc(C)nc(Nc3ccccc3)c2c1C#N	> 10	> 10	–	–
C=C(C)C1CC2=C(C(=O)OC)C=C(O2)C(C(=C)C)[C@@H]2OC(=O)/C(=C\C1O)[C@H]2N(C)C (some centres undefined)	5.4	24.8	31.4	–
CCOC(=O)c1cc(-c2ccc(OC)c(OC)c2)cn1C	> 10	> 10	> 10	–
COc1cccc(-n2nnc3c(N)nc(N)nc32)c1	> 100	> 100	> 100	–
CCOC(=O)c1c(OCC)[nH]c(=O)c(C(c2ccc(F)cc2)c2c(O)c(C(=O)OCC)c(OCC)[nH]c2=O)c1O	> 100	24.3	36.5	–
CCOC(=O)Cc1csc(/N=C\c2c(O)c3ccccc3oc2=O)n1	85.9	–	> 100	–
COC(=O)CCCc1ccc2c(c1)CCC2	> 100	> 100	> 100	–
O=Cc1cc(O)c(O)c(O)c1-c1c(C=O)cc(O)c(O)c1O	> 100	–	> 100	TGI [4]: > 100 µM; TGI [5]: > 100 µM; TGI [6]: > 100 µM; TGI [7]: > 100 µM; TGI [8]: > 100 µM; TGI [9]: > 100 µM; TGI [10]: > 100 µM; TGI [11]: > 100 µM
O=[N+]([O-])c1ccccc1S(=O)(=O)N1CCCc2cc(Cl)ccc21	> 100	> 100	> 100	–
Cc1cc2nc3c(C#N)c(-c4ccccc4)/c(=C\Nc4cccc(C(F)(F)F)c4)c(=O)n3c2cc1C	> 100	–	> 100	–
CCC(C#N)N(Cc1cccc(CN(C(C)=O)C(C#N)CC)c1)C(C)=O (centres undefined)	> 100	> 100	–	–
CC(C)(C)[Si](C)(C)OCC1OC(n2ccc(=O)[nH]c2=O)C(O[Si](C)(C)C(C)(C)C)/C1=N/O (centres undefined)	27.3	28.5	12.5	–
CC(=O)C1=CC=C/C1=N\Nc1ccccc1	11.2	28.2	38.7	–
CCN(CC)P1(=S)Oc2ccc3ccccc3c2-c2c(ccc3ccccc23)O1	> 100	> 100	> 100	–
OC1(c2ccc(Cl)cc2)c2ccccc2C2=Nc3ccccc3CN21 (centres undefined)	> 100	> 100	> 100	–

SMILES	TGI [1] [µM]	TGI [2] [µM]	TGI [3] [µM]	further results
CCOC(=O)/C(O)=C(\C=N\C(=S)Nc1ccc(Cl)c(Cl)c1)C(=O)OCC	> 100	> 100	> 100	–
CC(=O)OCc1ccc(-c2nc(C#N)c(N)o2)o1	> 10	> 10	> 10	–
Cc1ccc(S(=O)/C=C(\NC(=O)OCc2ccccc2)C(F)(F)F)cc1 (centres undefined)	72.4	> 100	> 100	–
CCOC(=O)C1(C(=O)OCC)C[C@H]2CON=C2[C@@H]1c1ccc(C(F)(F)F)cc1	23.7	> 100	> 100	–
CC1(c2cccc(C3CCC4(C=CC3=O)OCCO4)c2)OCCO1 (centres undefined)	10.5	31.8	30.6	TGI [4]: 11 µM; TGI [5]: 3.68 µM; TGI [6]: 22.9 µM; TGI [8]: 16.8 µM; TGI [9]: 3.97 µM; TGI [10]: 25.8 µM; TGI [11]: 48.7 µM
Cc1c(Cl)cccc1NC(=O)C(=O)C1C(=O)NC(=O)NC1=O	> 100	–	> 100	TGI [4]: > 100 µM; TGI [6]: > 100 µM; TGI [7]: > 100 µM; TGI [8]: > 100 µM; TGI [9]: > 100 µM; TGI [10]: > 100 µM; TGI [11]: > 100 µM; TGI [12]: > 100 µM
COCOc1cc(OC)ccc1C=O	> 100	> 100	> 100	–
COC(=O)c1nc2c(C)c(O)c(O)c([C@H](C)CCC=C(C)C)c2o1	29.6	> 100	> 100	–
CCOC(=O)Nc1ccc(S(=O)(=O)Nc2ccc(Br)cc2)cc1	> 100	> 100	72	–
COc1ccccc1NC(=S)N/N=C(/c1ccccc1)c1ccccn1	9.54	4.95	13.3	–
CCCCc1ccc(N2C(=O)c3cc(C)cnc3S2(=O)=O)cc1	–	> 100	> 100	–
Fc1ccc(C(=NCc2ccccc2)N2CCOCC2)cc1	> 100	> 100	> 100	–
COc1cc(O)c(C(=O)/C=C/c2ccc(O)cc2)cc1Oc1ccc(C(=O)/C=C/c2ccc(O)cc2)c(O)c1	33.8	5.78	12.1	–
Cc1cn2c(/C=C3/C(=O)Nc4ccccc43)c(-c3ccccc3)nc2s1	> 100	> 100	> 100	–
OC(Cn1cncn1)(Cn1cncn1)c1ccc(Cl)cc1Cl	> 100	–	> 100	TGI [4]: > 100 µM; TGI [5]: > 100 µM; TGI [6]: > 100 µM; TGI [7]: > 100 µM; TGI [8]: > 100 µM; TGI [9]: > 100 µM; TGI [10]: > 100 µM; TGI [11]: > 100 µM
CC(C)=NN/C(=N\S(=O)(=O)c1cc(Cl)c(Oc2ccc([N+](=O)[O-])cc2Cl)c(Cl)c1)Nc1ccc(Cl)cc1	> 100	> 100	> 100	–
